Where two headings read alike, the source gives them in different places.
Legend:
MNH 46686 strain = assay: Antibiotic susceptibility test by disk diffusion method; format: cell-based, Lachnospiraceae sp. MNH 46686; conditions: for Diameter of inhibition zone: against MNH 46686 strain
Description: 2.4 Antibiotic Susceptibility Test of MNH 46686 Strain by Disk Diffusion Method

IFNβ = assay: THP-1 IFNβ-promoter reporter (luciferase) assay; format: cell-based; conditions: 20 μM, 40 μM and 80 μM, 24 h
Description: Interferon (IFN) […] are a group of cytokines secreted by host cells, which can regulate immune responses. Interferons are produced under stimulation by viruses, bacterial endotoxins, synthetic double-stranded RNAs, etc. Macrophages, lymphocytes, somatic cells, etc., in the human body can all produce interferons, in which IFNβ belongs to type I interferons and can promote the activities of NK cells, macrophages, and T lymphocytes. […] Furthermore, the MNH 46686 strain of the present disclosure has been experimentally verified to be able to promote the expression of IFNβ, thereby exerting anti-viral, anti-tumor, immunomodulatory, and other effects. In order to verify whether MNH 46686 can promote the expression of IFNβ, the constructed THP-1 cells (a cell line established by Moon Co.) carrying the IFNβ-promoter reporter were used in this study to evaluate the effect of MNH 46686 on the transcriptional activity of IFNβ. […]
The THP-1-IFNβ-promoter reporter cells were inoculated in a 96-well plate, with 1×10^5 cells per well. […] The chemiluminescence values were detected with a microplate reader. The relative luminescence values were normalized to the untreated group and compared with the relative luminescence readings of the High group to evaluate the effect of MNH 46686 on the transcriptional activity of IFNβ.

| Compound | Note (susceptibility of MNH 46686 strain to the antibiotic) (MNH 46686 strain) | Diameter of inhibition zone (MNH 46686 strain) [mm] | other results |
| --- | --- | --- | --- |
| CC1(C)S[C@@H]2[C@H](NC(=O)[C@H](N)c3ccccc3)C(=O)N2[C@H]1C(=O)O [Ampicillin] | Resistant | 0.00 | Note (susceptibility of MNH 46686 strain to the antibiotic) (MNH 46686 strain; listed as ampicillin): resistant |
| Penicillin | Sensitive | 19.69 | Note (susceptibility of MNH 46686 strain to the antibiotic) (MNH 46686 strain; listed as penicillin): sensitive |
| COc1cc2cc(C(=O)CCC(=O)O)sc2cc1OC [MSA-2] | – | – | response of the IFNβ reporter system to the positive drug (IFNβ): good response |
| Gentamicin | Sensitive | 10.90 | Note (susceptibility of MNH 46686 strain to the antibiotic) (MNH 46686 strain; listed as gentamicin): sensitive |
| Trimethoprim-sulfamethoxazole | Resistant | 0.00 | Note (susceptibility of MNH 46686 strain to the antibiotic) (MNH 46686 strain; listed as trimethoprim-sulfamethoxazole): resistant |
| O=C(O)c1cn(C2CC2)c2cc(N3CCNCC3)c(F)cc2c1=O [Ciprofloxacin] | Resistant | 0.00 | Note (susceptibility of MNH 46686 strain to the antibiotic) (MNH 46686 strain; listed as ciprofloxacin): resistant |
| CN(C)[C@@H]1C(O)=C(C(N)=O)C(=O)[C@@]2(O)C(O)=C3C(=O)c4c(O)cccc4[C@@](C)(O)[C@H]3C[C@@H]12 [Tetracycline] | – | 12.01 | – |
| CC[C@H]1OC(=O)[C@H](C)[C@@H](O[C@H]2C[C@@](C)(OC)[C@@H](O)[C@H](C)O2)[C@H](C)[C@@H](O[C@@H]2O[C@H](C)C[C@H](N(C)C)[C@H]2O)[C@](C)(O)C[C@@H](C)C(=O)[C@H](C)[C@@H](O)[C@]1(C)O [Erythromycin] | Resistant | 0.00 | Note (susceptibility of MNH 46686 strain to the antibiotic) (MNH 46686 strain; listed as erythromycin): resistant |
| CCC[C@@H]1C[C@@H](C(=O)N[C@@H]([C@H]2O[C@H](SC)[C@H](O)[C@@H](O)[C@H]2O)[C@@H](C)O)N(C)C1 [Lincomycin] | Resistant | 0.00 | Note (susceptibility of MNH 46686 strain to the antibiotic) (MNH 46686 strain; listed as lincomycin): resistant |
| CO/N=C(\C(=O)N[C@@H]1C(=O)N2C(C(=O)O)=C(CSc3nc(=O)c(=O)[nH]n3C)CS[C@H]12)c1csc(N)n1 [Ceftriaxone] | Resistant | 0.00 | Note (susceptibility of MNH 46686 strain to the antibiotic) (MNH 46686 strain; listed as ceftriaxone): resistant |
| O=C(N[C@H](CO)[C@H](O)c1ccc([N+](=O)[O-])cc1)C(Cl)Cl [Chloramphenicol] | Sensitive | 18.45 | Note (susceptibility of MNH 46686 strain to the antibiotic) (MNH 46686 strain; listed as chloramphenicol): sensitive |
